This test has as its target Hydroxycarboxylic acid receptor 2 (Homo sapiens, UniProt Q8TDS4). In words: Agonist activity at human HM74A transfected in CHO-K1 cells for 4 hrs by [35S]-GTPgammaS binding assay. It counts as functional, cell-based.
Chain of Hydroxycarboxylic acid receptor 2 (Q8TDS4 whole entry): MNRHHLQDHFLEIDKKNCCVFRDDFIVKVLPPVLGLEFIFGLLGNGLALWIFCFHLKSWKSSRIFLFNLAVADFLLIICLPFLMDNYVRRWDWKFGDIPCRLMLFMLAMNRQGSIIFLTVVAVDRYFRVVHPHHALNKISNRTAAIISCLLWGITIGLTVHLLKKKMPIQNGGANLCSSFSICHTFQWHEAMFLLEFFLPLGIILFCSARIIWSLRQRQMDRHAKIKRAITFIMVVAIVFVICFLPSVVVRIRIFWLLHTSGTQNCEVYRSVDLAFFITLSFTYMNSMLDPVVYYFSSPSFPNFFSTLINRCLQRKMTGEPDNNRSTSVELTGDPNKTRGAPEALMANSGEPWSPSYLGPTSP
For orientation: EC50 means the concentration giving half of the maximal effect. In turn, `CC(C)CCCn1c(=O)[nH]c(=O)c2[nH]c(Cl)nc21` had an EC50 of less than 12.6 µM and an Efficacy greater than 30%.
As for `O=c1[nH]c(=O)n(CCC2CC2)c2nc(Cl)[nH]c12`, the EC50 was less than 12.6 µM and the Efficacy is greater than 30%.
The corresponding values for `C=CCCn1c(=O)[nH]c(=O)c2[nH]c(Cl)nc21` are less than 12.6 µM and greater than 30%.
As for `CC(C)CCn1c(=O)[nH]c(=O)c2[nH]c(Cl)nc21`, the concentration for a half-maximal effect (EC50) is less than 12.6 µM and the Efficacy was greater than 30%.
Taken in the same sequence, the figures for `C=CCCCn1c(=O)[nH]c(=O)c2[nH]c(Cl)nc21` were less than 12.6 µM and greater than 30%.
The corresponding values for `O=c1[nH]c(=O)n(CCCCCF)c2nc(Cl)[nH]c12` are less than 12.6 µM and greater than 30%.
The corresponding values for `CCn1c(=O)c2[nH]c(Cl)nc2n(CC(F)(F)F)c1=O` are less than 12.6 µM and greater than 30%.
The molecule `CCCCn1c(=O)n(CC#N)c(=O)c2[nH]c(Cl)nc21` gave an EC50 of less than 12.6 µM and an Efficacy greater than 30%.
The corresponding values for `CCCCCCn1c(=O)n(C)c(=O)c2[nH]c(Cl)nc21` are less than 12.6 µM and greater than 30%.
Turning to `O=c1[nH]c(=O)n(CCC2CCC2)c2nc(Cl)[nH]c12`, the concentration giving a half-maximal response (EC50) was less than 12.6 µM and the Efficacy is greater than 30%.
Consider `CCC(C)CCn1c(=O)[nH]c(=O)c2[nH]c(Cl)nc21` (racemic), for which the EC50 was less than 12.6 µM and the Efficacy is greater than 30%.
`CCCCCCCCCCn1c(=O)[nH]c(=O)c2[nH]c(Cl)nc21` gave a concentration giving a half-maximal response (EC50) of less than 12.6 µM and an Efficacy greater than 30%.
Taken in the same sequence, the figures for `CCC(C)Cn1c(=O)[nH]c(=O)c2[nH]c(Cl)nc21` (racemic) were less than 12.6 µM and greater than 30%.
Taken in the same sequence, the figures for `CCCCCn1c(=O)[nH]c(=O)c2[nH]c(Cl)nc21` were less than 12.6 µM and greater than 30%.
The molecule `O=c1[nH]c(=O)n(CCCCF)c2nc(Cl)[nH]c12` showed an EC50 of less than 12.6 µM and an Efficacy greater than 30%.
Turning to `N#CCn1c(=O)[nH]c(=O)c2[nH]c(Cl)nc21`, the 50% effective concentration (EC50) was less than 12.6 µM and the Efficacy was greater than 30%.
`N#CCn1c(=O)c2[nH]c(Cl)nc2n(CCC2CC2)c1=O` had an EC50 of less than 12.6 µM and an Efficacy greater than 30%.
`O=c1[nH]c(=O)n(CCCC(F)(F)F)c2nc(Cl)[nH]c12` showed an EC50 of less than 12.6 µM and an Efficacy greater than 30%.
The corresponding values for `Cn1c(=O)c2[nH]c(Cl)nc2n(CCCC(F)(F)F)c1=O` are less than 12.6 µM and greater than 30%.
Taken in the same sequence, the figures for `CCCCn1c(=O)c2[nH]c(I)nc2n(CCCC)c1=O` were less than 12.6 µM and greater than 30%.
The corresponding values for `CCCCCn1c(=O)n(C)c(=O)c2[nH]c(C#N)nc21` are less than 12.6 µM and greater than 30%.
In turn, `O=c1[nH]c(=O)n(CC2CCCCC2)c2nc(Cl)[nH]c12` had an EC50 of less than 12.6 µM and an Efficacy greater than 30%.
The corresponding values for `CCCCn1c(=O)n(C)c(=O)c2[nH]c(C#N)nc21` are less than 12.6 µM and greater than 30%.
For `CC(C)(C#N)CCCCn1c(=O)[nH]c(=O)c2[nH]c(Cl)nc21`, the concentration giving a half-maximal response (EC50) is less than 12.6 µM and the Efficacy is greater than 30%.
The corresponding values for `CCCCCn1c(=O)n(C)c(=O)c2[nH]c(Cl)nc21` are less than 12.6 µM and greater than 30%.
As to `CCCn1c(=O)c2[nH]c(Cl)nc2n(CC(F)(F)F)c1=O`, the EC50 is less than 12.6 µM and the Efficacy is greater than 30%.
Taken in the same sequence, the figures for `CCCn1c(=O)n(C)c(=O)c2[nH]c(Cl)nc21` were less than 12.6 µM and greater than 30%.
The corresponding values for `CCCCCn1c(=O)n(C)c(=O)c2[nH]c(Br)nc21` are less than 12.6 µM and greater than 30%.
Taken in the same sequence, the figures for `O=c1c2[nH]c(Cl)nc2n(CCCC(F)(F)F)c(=O)n1CCCC(F)(F)F` were less than 12.6 µM and greater than 30%.
Molecule `CCCCCCCCn1c(=O)[nH]c(=O)c2[nH]c(Cl)nc21` showed an EC50 of less than 12.6 µM and an Efficacy greater than 30%.
The corresponding values for `O=c1[nH]c(=O)n(CCCF)c2nc(Cl)[nH]c12` are less than 12.6 µM and greater than 30%.
The corresponding values for `O=c1c2[nH]c(Cl)nc2n(CC(F)(F)F)c(=O)n1CCCC(F)(F)F` are less than 12.6 µM and greater than 30%.
The corresponding values for `Cn1c(=O)c2[nH]c(Cl)nc2n(CCCC#N)c1=O` are less than 12.6 µM and greater than 30%.
Molecule `O=c1[nH]c(=O)n(CC2CC2)c2nc(Cl)[nH]c12` gave an EC50 of less than 12.6 µM and an Efficacy greater than 30%.
The molecule `O=c1[nH]c(=O)n(CC(F)(F)F)c2nc(Cl)[nH]c12` showed a concentration giving a half-maximal response (EC50) of less than 12.6 µM and an Efficacy greater than 30%.
Taken in the same sequence, the figures for `CCCn1c(=O)[nH]c(=O)c2[nH]c(Cl)nc21` were less than 12.6 µM and greater than 30%.
Taken in the same sequence, the figures for `CCCCn1c(=O)[nH]c(=O)c2[nH]c(Cl)nc21` were less than 12.6 µM and greater than 30%.
As to `CCCCn1c(=O)c2[nH]c(C#N)nc2n(CCCC)c1=O`, the EC50 is less than 12.6 µM and the Efficacy is greater than 30%.
As to `CCCCn1c(=O)n(CC)c(=O)c2[nH]c(Cl)nc21`, the EC50 was less than 12.6 µM and the Efficacy was greater than 30%.
In the case of `N#CCn1c(=O)c2[nH]c(Cl)nc2n(CC#N)c1=O`, the EC50 is less than 12.6 µM and the Efficacy was greater than 30%.
Taken in the same sequence, the figures for `O=c1[nH]c(=O)n(CC2CCC2)c2nc(Cl)[nH]c12` were less than 12.6 µM and greater than 30%.
The corresponding values for `O=c1[nH]c(=O)n(CCCC2CC2)c2nc(Cl)[nH]c12` are less than 12.6 µM and greater than 30%.
On to `CCCC(C)Cn1c(=O)[nH]c(=O)c2[nH]c(Cl)nc21` (racemic), for which the EC50 was less than 12.6 µM and the Efficacy was greater than 30%.
For the molecule `CC(C)CCCCCn1c(=O)[nH]c(=O)c2[nH]c(Cl)nc21`, the EC50 is less than 12.6 µM and the Efficacy was greater than 30%.
Molecule `CCCCn1c(=O)n(C)c(=O)c2[nH]c(Cl)nc21` displayed an Efficacy greater than 30%.
`CCCn1c(=O)n(CC#N)c(=O)c2[nH]c(Cl)nc21`: the EC50 was less than 12.6 µM and the Efficacy is greater than 30%.
`CCn1c(=O)n(C)c(=O)c2[nH]c(Cl)nc21` gave a concentration for a half-maximal effect (EC50) of less than 12.6 µM and an Efficacy greater than 30%.
The corresponding values for `CCCCCCn1c(=O)[nH]c(=O)c2[nH]c(Cl)nc21` are less than 12.6 µM and greater than 30%.
The molecule `O=c1[nH]c(=O)n(CCC(F)(F)F)c2nc(Cl)[nH]c12` gave an EC50 of less than 12.6 µM and an Efficacy greater than 30%.
With `O=c1[nH]c(=O)n(CC2CCCC2)c2nc(Cl)[nH]c12`, the half-maximal effective concentration (EC50) was less than 12.6 µM and the Efficacy was greater than 30%.
The molecule `O=c1[nH]c(=O)n(CCC2CCCCC2)c2nc(Cl)[nH]c12` gave an EC50 of less than 12.6 µM and an Efficacy greater than 30%.
Taken in the same sequence, the figures for `O=c1[nH]c(=O)n(CCC2CCCC2)c2nc(Cl)[nH]c12` were less than 12.6 µM and greater than 30%.
Molecule `N#CCCCn1c(=O)[nH]c(=O)c2[nH]c(Cl)nc21` gave an EC50 of less than 12.6 µM and an Efficacy greater than 30%.
Taken in the same sequence, the figures for `O=c1[nH]c(=O)n(CCCCCCF)c2nc(Cl)[nH]c12` were less than 12.6 µM and greater than 30%.

The record behind these values is ChEMBL document CHEMBL3727370, “HM74 receptor agonists:xanthine derivatives, corresponding pharmaceutical compositions, treatment methods and processes” (2013).
